Laboratory results published in ChEMBL document CHEMBL1129759, “A comparative study of the solvolysis reactivity, regioselectivity, and stereochemistry of the duocarmycin a and sa alkylation subunits” (Bioorg Med Chem Lett, 1996).

How the values were obtained:
[1] = Half-life […] at pH 3.0; format: ADME, cell-free
[2] = tested on: L1210; test: Compound was tested for its anti tumor activity against L1210 cells; format: functional, cell-based; conditions: Mus musculus
[3] = tested on: L1210; test: The compound was tested for its anti tumor activity against L1210 cells; format: functional, cell-based; conditions: Mus musculus

Structure (SMILES)	half-life [1] [h]	IC50 [2] [nM]	IC50 [3] [nM]
COC(=O)[C@]1(C)N=C2C(=O)C=C3N(C(=O)OC(C)(C)C)C[C@H]4C[C@@]34C2=C1O	11	2000	
Cc1c[nH]c2c1[C@@]13C[C@@H]1CN(C(=O)OC(C)(C)C)C3=CC2=O	37		330
COC(=O)c1cc2c([nH]1)C(=O)C=C1N(C(=O)OC(C)(C)C)C[C@H]3C[C@]123	177	6	
